# Measured values as given in patent US10077277B2, “Bicyclic heteroarylaminoalkyl phenyl derivatives as PI3K inhibitors” (Incyte Corporation, priority 2014, dated 2018).
# How the values were obtained:
# human JAK2 = human JAK2 (Homo sapiens (Human), UniProt O60674); assay: In vitro JAK kinase assay (Example J), JAK2; assay type: biochemical; details: ratio of IC50s, Assay J at 1 mM ATP
# human JAK1 = human JAK1 (Homo sapiens, UniProt P23458); assay: In vitro JAK kinase assay (Example J), JAK1; assay type: biochemical; details: Assay J at 1 mM ATP
# Sequence of human JAK2 (O60674 828-1132): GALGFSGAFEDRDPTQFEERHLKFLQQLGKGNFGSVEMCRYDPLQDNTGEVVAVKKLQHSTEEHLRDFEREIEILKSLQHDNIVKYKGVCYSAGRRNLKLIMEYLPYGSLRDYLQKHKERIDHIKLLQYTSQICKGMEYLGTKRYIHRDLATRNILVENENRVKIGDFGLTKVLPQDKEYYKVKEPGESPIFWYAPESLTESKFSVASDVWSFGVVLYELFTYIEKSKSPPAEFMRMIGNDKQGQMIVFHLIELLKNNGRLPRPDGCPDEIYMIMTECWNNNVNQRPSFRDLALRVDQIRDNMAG
Compound,JAK2/JAK1 (human JAK2),IC50 (human JAK1) [nM]
"CC(C)(O)c1cc(O[C@H]2CC[C@@H](N3CC(CC#N)(n4cc(-c5ncnc6[nH]ccc56)cn4)C3)CC2)nc(C(F)(F)F)c1 [Example 20, {1-(cis-4-{[4-(1-hydroxy-1-methylethyl)-6-(trifluoromethyl)pyridin-2-yl]oxy}cyclohexyl)-3-[4-(7H-pyrrolo[2,3-d]pyrimidin-4-yl)-1H-pyrazol-1-yl]azetidin-3-yl}acetonitrile]",>10,< 10
C[C@@H](O)CNCc1cc(OC2CCN([C@H]3C[C@](CC#N)(n4cc(-c5ncnc6[nH]ccc56)cn4)C3)CC2)nc(C(F)(F)F)c1 [Example 24],>10,< 10
"CCNCc1cc(O[C@H]2CC[C@@H](N3CC(CC#N)(n4cc(-c5ncnc6[nH]ccc56)cn4)C3)CC2)nc(C(F)(F)F)c1 [Example 19, {1-(cis-4-{[4-[(ethylamino)methyl]-6-(trifluoromethyl)pyridin-2-yl]oxy}cyclohexyl)-3-[4-(7H-pyrrolo[2,3-d]pyrimidin-4-yl)-1H-pyrazol-1-yl]azetidin-3-yl}acetonitrile]",>10,< 10
"N#CCC1(n2cc(-c3ncnc4[nH]ccc34)cn2)CN(C2CCN(C(=O)Nc3ccc(F)cc3C(F)(F)F)CC2)C1 [Example 8, 4-{3-(Cyanomethyl)-3-[4-(7H-pyrrolo[2,3-d]pyrimidin-4-yl)-1H-pyrazol-1-yl]azetidin-1-yl}-N-[4-fluoro-2-(trifluoromethyl)phenyl]piperidine-1-carboxamide]",>10,< 10
"N#CCC1(n2cc(-c3ncnc4[nH]ccc34)cn2)CN(C2CCN(C(=O)c3ccnc(C(F)(F)F)n3)CC2)C1 [Example 9, [3-[4-(7H-pyrrolo[2,3-d]pyrimidin-4-yl)-1H-pyrazol-1-yl]-1-(1-{[2-(trifluoromethyl)pyrimidin-4-yl]carbonyl}piperidin-4-yl)azetidin-3-yl]acetonitrile]",>10,< 10
N#CCC(CN1CCN(C(=O)c2ccc(C#N)cc2F)CC1)n1cc(-c2ncnc3[nH]ccc23)cn1 (stereo not drawn) [Example 6],>10,–
"N#CCC1(n2cc(-c3ncnc4[nH]ccc34)cn2)CN([C@H]2CC[C@@H](Oc3cc(CCO)nc(C(F)(F)F)n3)CC2)C1 [Example 18, {1-(cis-4-{[6-(2-hydroxyethyl)-2-(trifluoromethyl)pyrimidin-4-yl]oxy}cyclohexyl)-3-[4-(7H-pyrrolo[2,3-d]pyrimidin-4-yl)-1H-pyrazol-1-yl]azetidin-3-yl}acetonitrile]",>10,< 10
"N#CCC1(n2cc(-c3ncnc4[nH]ccc34)cn2)CN(C2CCN(C(=O)c3ccnc(C(F)(F)F)c3F)CC2)C1 [Example 7, {1-{1-[3-Fluoro-2-(trifluoromethyl)isonicotinoyl]piperidin-4-yl}-3-[4-(7H-pyrrolo[2,3-d]pyrimidin-4-yl)-1H-pyrazol-1-yl]azetidin-3-yl}acetonitrile]",>10,< 10
N#CC[C@]1(n2cc(-c3ncnc4[nH]ccc34)cn2)C[C@H](N2CCC(Oc3cc(CN4CC(O)C4)cc(C(F)(F)F)n3)CC2)C1 [Example 11],>10,< 10
N#CC[C@]1(n2cc(-c3ncnc4[nH]ccc34)cn2)C[C@H](N2CCC(Oc3cc(CN4CCC[C@H]4CO)cc(C(F)(F)F)n3)CC2)C1 [Example 12],>10,< 10
C[C@H](NC(=O)c1cc(F)c(N2CC(CC#N)(n3cc(-c4ncnc5[nH]ccc45)cn3)C2)cc1F)C(F)(F)F [Example 16],>10,< 10
N#CC[C@]1(n2cc(-c3ncnc4[nH]ccc34)cn2)C[C@H](N2CCC(Oc3cc(CN4CCC[C@@H]4CO)cc(C(F)(F)F)n3)CC2)C1 [Example 13],>10,< 10
N#CC[C@]1(n2cc(-c3ncnc4[nH]ccc34)cn2)C[C@H](N2CCC(Oc3cc(CCO)cc(C(F)(F)F)n3)CC2)C1 [Example 26],>10,< 10
N#CCC(CN1CCN(C(=O)c2ccc(C#N)cc2F)CC1)n1cc(-c2ncnc3[nH]ccc23)cn1 (stereo not drawn) [Example 5],>10,< 10
C[C@@H](CO)NCc1cc(OC2CCN([C@H]3C[C@](CC#N)(n4cc(-c5ncnc6[nH]ccc56)cn4)C3)CC2)nc(C(F)(F)F)c1 [Example 23],>10,< 10
C[C@H](O)CNCc1cc(OC2CCN([C@H]3C[C@](CC#N)(n4cc(-c5ncnc6[nH]ccc56)cn4)C3)CC2)nc(C(F)(F)F)c1 [Example 25],>10,< 10
N#CC[C@]1(n2cc(-c3ncnc4[nH]ccc34)cn2)C[C@H](N2CCN(C(=O)c3ccnc(C(F)(F)F)n3)CC2)C1 [Example 10],>10,< 10
"N#CCC1(n2cc(-c3ncnc4[nH]ccc34)cn2)CN([C@H]2CC[C@@H](Oc3cc(CN4CC[C@H](O)C4)cc(C(F)(F)F)n3)CC2)C1 [Example 22, {1-(cis-4-{[4-{[(3S)-3-hydroxypyrrolidin-1-yl]methyl}-6-(trifluoromethyl)pyridin-2-yl]oxy}cyclohexyl)-3-[4-(7H-pyrrolo[2,3-d]pyrimidin-4-yl)-1H-pyrazol-1-yl]azetidin-3-yl}acetonitrile]",>10,< 10
N#CCC(C1CCN(c2cccc(Cl)n2)C1)n1cc(-c2ncnc3[nH]ccc23)cn1 (stereo not drawn) [bis(trifluoroacetate)],>10,< 10
N#CCC1(n2cc(-c3ncnc4[nH]ccc34)cn2)CN([C@H]2CC[C@@H](Oc3cc(CN4CC[C@@H](O)C4)cc(C(F)(F)F)n3)CC2)C1 [Example 21],>10,< 10
